According to patent US20220089575A1, “FARNESOID X RECEPTOR AGONISTS AND USES THEREOF” (Metacrine, Inc., priority 2017, published 2022):

What follows are molecules tested against T1, hFXR (Homo sapiens, UniProt Q96RI1) (assay: In Vitro FXR Assay (TK): TK-ECRE-luc reporter in transfected CV-1 cells). Details: 18 hrs, luminescence, maximum efficacy of <25% of the Fexarmine control classified as '+'.
T1 construct: expressed in transfected cells; host or cells: CV-1 cells
T1 sequence (Q96RI1 1-486): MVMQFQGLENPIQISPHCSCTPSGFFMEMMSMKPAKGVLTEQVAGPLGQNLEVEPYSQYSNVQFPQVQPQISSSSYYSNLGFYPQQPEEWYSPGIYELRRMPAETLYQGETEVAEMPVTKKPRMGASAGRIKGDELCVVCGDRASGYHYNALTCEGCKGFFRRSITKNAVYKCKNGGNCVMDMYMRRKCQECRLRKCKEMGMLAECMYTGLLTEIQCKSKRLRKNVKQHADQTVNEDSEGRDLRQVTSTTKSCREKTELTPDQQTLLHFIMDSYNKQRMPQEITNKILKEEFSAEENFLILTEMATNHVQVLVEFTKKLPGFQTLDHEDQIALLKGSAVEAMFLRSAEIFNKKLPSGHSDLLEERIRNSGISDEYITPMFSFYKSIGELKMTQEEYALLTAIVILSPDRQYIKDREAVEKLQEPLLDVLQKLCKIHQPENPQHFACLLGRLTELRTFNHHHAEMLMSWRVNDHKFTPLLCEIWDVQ
T1 sequence (P19793 1-462 partner): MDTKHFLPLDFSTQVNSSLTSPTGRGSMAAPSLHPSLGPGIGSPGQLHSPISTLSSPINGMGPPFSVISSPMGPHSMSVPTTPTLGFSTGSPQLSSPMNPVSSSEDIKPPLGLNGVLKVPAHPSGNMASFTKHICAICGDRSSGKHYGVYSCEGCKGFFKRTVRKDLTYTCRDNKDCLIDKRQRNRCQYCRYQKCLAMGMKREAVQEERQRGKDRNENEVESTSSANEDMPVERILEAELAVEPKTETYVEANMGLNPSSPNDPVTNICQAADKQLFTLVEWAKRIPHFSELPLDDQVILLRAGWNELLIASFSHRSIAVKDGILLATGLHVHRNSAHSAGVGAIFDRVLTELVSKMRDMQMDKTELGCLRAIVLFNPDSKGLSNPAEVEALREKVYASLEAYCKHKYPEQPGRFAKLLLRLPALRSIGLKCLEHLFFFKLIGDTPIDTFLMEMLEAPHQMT
Assay type: cell-based
In short: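 Transiently transfected monkey CV-1 cells (hFXR, hRXR, TK-ECRE-luciferase, YFP control plasmid), held in stripped-serum DMEM, received compound dilutions from DMSO for 18 h at 37 °C. Activity was taken from luminescence of the cell lysates.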
`COc1ncc([C@H]2CC[C@H](CN(c3cc(-c4coc(C5CC5)n4)ccn3)C(=O)[C@H]3CC[C@H](OC(=O)N4CC(OC)C4)CC3)CC2)cc1C` [Compound 7.93, trans-4-((4-(2-Cyclopropyloxazol-4-yl)pyridine-2-yl)((trans-4-(6-methoxy-5-methylpyridin-3-yl)cyclohexyl)methyl)carbamoyl)cyclohexyl 3-methoxyazetidine-1-carboxylate] was tested, and the EC50 was no more than 250 nM. `COc1ncc([C@H]2CC[C@H](CN(c3cc(-c4coc(C5CC5)n4)ccn3)C(=O)[C@H]3CC[C@H](OC(=O)N4CC(O)C4)CC3)CC2)cc1C` [Compound 7.94, trans-4-((4-(2-Cyclopropyloxazol-4-yl)pyridine-2-yl)((trans-4-(6-methoxy-5-methylpyridin-3-yl)cyclohexyl)methyl)carbamoyl)cyclohexyl 3-hydroxyazetidine-1-carboxylate] showed an EC50 of no more than 250 nM. Work on `COCCOC1CN(C(=O)O[C@H]2CC[C@H](C(=O)N(C[C@H]3CC[C@H](c4ccc(OC)c(C)n4)CC3)c3cc(-c4coc(C5CC5)n4)ccn3)CC2)C1` [Compound 7.95, trans-4-((4-(2-Cyclopropyloxazol-4-yl)pyridine-2-yl)((trans-4-(5-methoxy-6-methylpyridin-2-yl)cyclohexyl)methyl)carbamoyl)cyclohexyl 3-(2-methoxyethoxy)azetidine-1-carboxylate] yielded an EC50 of no more than 250 nM. In the case of `COc1ccc([C@H]2CC[C@H](CN(c3cc(-c4coc(C5CC5)n4)ccn3)C(=O)[C@H]3CC[C@@H](OC(=O)N4CC(O)C4)CC3)CC2)nc1C` [Compound 7.96, 4-(4-(2-Cyclopropyloxazol-4-y)pyridine-2-yl)((4-(5-methoxy-6-methylpyridin-2-yl)cyclohexyl)methyl)carbamoyl) cyclohexyl-cis-3-hydroxyazetidine-1-carboxylate], the EC50 is reported as 250 to 1000 nM. In the case of `COc1ccc([C@H]2CC[C@H](CN(c3cc(-c4coc(C(C)C)n4)ccn3)C(=O)[C@H]3CC[C@H](OC(=O)N4CC(CO)C4)CC3)CC2)nc1C` [Compound 7.97, trans-4-((4-(2-Isopropyloxazol-4-yl)pyridine-2-yl)((trans-4-(5-methoxy-6-methylpyridin-2-yl)cyclohexyl)methyl)carbamoyl)cyclohexyl 3-(hydroxymethyl)azetidine-1-carboxylate], the EC50 is reported as no more than 250 nM. Molecule `C#CC1CN(C(=O)O[C@H]2CC[C@H](C(=O)N(C[C@H]3CC[C@H](c4ccc(OC)c(C)n4)CC3)c3cc(-c4coc(C5CC5)n4)ccn3)CC2)C1` [Compound 7.98, trans-4-((4-(2-Cyclopropyloxazol-4-yl)pyridine-2-yl)((trans-4-(5-methoxy-6-methylpyridin-2-yl)cyclohexyl)methyl)carbamoyl)cyclohexyl 3-ethynylazetidine-1-carboxylate] has an EC50 of no more than 250 nM. In the case of `COc1ccc([C@H]2CC[C@H](CN(c3cc(-c4coc(C5CC5)n4)ccn3)C(=O)[C@H]3CC[C@H](OC(=O)N4CC(C(C)(C)O)C4)CC3)CC2)nc1C` [Compound 7.99, trans-4-((4-(2-Cyclopropyloxazol-4-yl)pyridine-2-yl)((trans-4-(5-methoxy-6-methylpyridin-2-yl)cyclohexyl)methyl)carbamoyl)cyclohexyl 3-(2-hydroxypropan-2-yl)azetidine-1-carboxylate], the EC50 is reported as no more than 250 nM. `CCC1CN(C(=O)O[C@H]2CC[C@H](C(=O)N(C[C@H]3CC[C@H](c4ccc(OC)c(C)n4)CC3)c3cc(-c4coc(C(C)C)n4)ccn3)CC2)C1` [Compound 7.100, trans-4-((4-(2-Isopropyloxazol-4-yl)pyridine-2-yl)((trans-4-(5-methoxy-6-methylpyridin-2-yl)cyclohexyl)methyl)carbamoyl)cyclohexyl 3-ethylazetidine-1-carboxylate] was tested, and the EC50 was no more than 250 nM. `COc1ccc([C@H]2CC[C@H](CN(c3cc(-c4coc(C5CC5)n4)ccn3)C(=O)[C@H]3CC[C@H](OC(=O)N4CC(CS(C)(=O)=O)C4)CC3)CC2)nc1C` [Compound 7.101, trans-4-((4-(2-Cyclopropyloxazol-4-yl)pyridine-2-yl)((trans-4-(5-methoxy-6-methylpyridin-2-yl)cyclohexyl)methyl)carbamoyl)cyclohexyl 3-((methylsulfonyl)methyl)azetidine-1-carboxylate] showed an EC50 of no more than 250 nM. `COc1ccc([C@H]2CC[C@H](CN(c3cc(-c4coc(C5CC5)n4)ccn3)C(=O)[C@H]3CC[C@H](OC(=O)N4CC(C(C)C)C4)CC3)CC2)nc1C` [Compound 7.102, trans-4-((4-(2-Cyclopropyloxazol-4-yl)pyridine-2-yl)((trans-4-(5-methoxy-6-methylpyridin-2-yl)cyclohexyl)methyl)carbamoyl)cyclohexyl 3-isopropylazetidine-1-carboxylate] gave an EC50 of no more than 250 nM. `COc1ccc([C@H]2CC[C@H](CN(c3cc(-c4coc(C5CC5)n4)ccn3)C(=O)[C@H]3CC[C@H](OC(=O)N4CC(C(C)(C)C)C4)CC3)CC2)nc1C` [Compound 7.103, trans-4-((4-(2-Cyclopropyloxazol-4-yl)pyridine-2-yl)((trans-4-(5-methoxy-6-methylpyridin-2-yl)cyclohexyl)methyl)carbamoyl)cyclohexyl 3-(tert-butyl)azetidine-1-carboxylate] was tested, and the EC50 was no more than 250 nM. In the case of `CCCOC1CN(C(=O)O[C@H]2CC[C@H](C(=O)N(C[C@H]3CC[C@H](c4ccc(OC)c(C)n4)CC3)c3cc(-c4coc(C5CC5)n4)ccn3)CC2)C1` [Compound 7.104, trans-4-((4-(2-Cyclopropyloxazol-4-yl)pyridine-2-yl)((trans-4-(5-methoxy-6-methylpyridin-2-yl)cyclohexyl)methyl)carbamoyl)cyclohexyl 3-propoxyazetidine-1-carboxylate], the EC50 is reported as no more than 250 nM. `CCCC1CN(C(=O)O[C@H]2CC[C@H](C(=O)N(C[C@H]3CC[C@H](c4ccc(OC)c(C)n4)CC3)c3cc(-c4coc(C5CC5)n4)ccn3)CC2)C1` [Compound 7.105, trans-4-((4-(2-Cyclopropyloxazol-4-yl)pyridin-2-yl)((trans-4-(5-methoxy-6-methylpyridin-2-yl)cyclohexyl)methyl)carbamoyl)cyclohexyl 3-propylazetidine-1-carboxylate] showed an EC50 of no more than 250 nM. Work on `COc1ccc([C@H]2CC[C@H](CN(c3cc(-c4coc(C5CC5)n4)ccn3)C(=O)[C@H]3CC[C@H](OC(=O)N4CC(CN(C)C)C4)CC3)CC2)nc1C` [Compound 7.106, trans-4-((4-(2-Cyclopropyloxazol-4-yl)pyridin-2-yl)((trans-4-(5-methoxy-6-methylpyridin-2-yl)cyclohexyl)methyl)carbamoyl)cyclohexyl 3-((dimethylamino)methyl)azetidine-1-carboxylate] yielded an EC50 of no more than 250 nM. Work on `COc1ccc([C@H]2CC[C@H](CN(c3cc(-c4coc(C5CC5)n4)ccn3)C(=O)[C@H]3CC[C@H](OC(=O)N4CCOC(C)C4)CC3)CC2)nc1C` (stereo partly drawn) [Compound 7.107, trans-4-((4-(2-Cyclopropyloxazol-4-yl)pyridin-2-yl)((trans-4-(5-methoxy-6-methylpyridin-2-yl)cyclohexyl)methyl)carbamoyl)cyclohexyl 2-methylmorpholine-4-carboxylate] yielded an EC50 of no more than 250 nM. In the case of `COc1ccc([C@H]2CC[C@H](CN(c3cc(-c4coc(C5CC5)n4)ccn3)C(=O)[C@H]3CC[C@H](OC(=O)N4CC(N5CC(O)C5)C4)CC3)CC2)nc1C` [Compound 7.108, trans-4-((4-(2-Cyclopropyloxazol-4-yl)pyridin-2-yl)((trans-4-(5-methoxy-6-methylpyridin-2-yl)cyclohexyl)methyl)carbamoyl)cyclohexyl 3-hydroxy-[1,3′-biazetidine]-1′-carboxylate], the EC50 is reported as no more than 250 nM. `CCc1nc(-c2ccnc(N(C[C@H]3CC[C@H](c4ccc(OC)c(C)n4)CC3)C(=O)[C@H]3CC[C@H](OC(=O)N4CC(O)C4)CC3)c2)co1` [Compound 7.109, trans-4-((4-(2-Ethyloxazol-4-yl)pyridin-2-yl)((trans-4-(5-methoxy-6-methylpyridin-2-yl)cyclohexyl)methyl)carbamoyl)cyclohexyl 3-hydroxyazetidine-1-carboxylate] showed an EC50 of no more than 250 nM. `COc1ccc([C@H]2CC[C@H](CN(c3cccc(-c4cnn(C5CC5)c4)c3)C(=O)[C@H]3CC[C@H](OC(=O)N4CC(C[S+](C)[O-])C4)CC3)CC2)cc1C` (stereo partly drawn) [Compound 8, trans-4-((3-(1-Cyclopropyl-1H-pyrazol-4-yl)phenyl)((trans-4-(4-methoxy-3-methylphenyl)cyclohexyl)methyl)carbamoyl)cyclohexyl 3-((methylsulfinyl)methyl)azetidine-1-carboxylate] gave an EC50 of no more than 250 nM.
